Results from patent US4145554A, “3-Nitropyrazole derivatives” (Eli Lilly and Company, priority 1977, dated 1979).
In brackets after ≈: the same amount, converted by molar mass.

Tests used:
[1] = system: naturally-occurring pneumoenteritis complex infection (pasteurella species, E. coli and salmonellae); test: Pneumoenteritis complex disease in calves, second test; format: in vivo
Experimental: The test reported below was conducted in general identically with the test above. All of the calves used in the test were approximately 3 days old when the test began, and the test ran for 56 days.
The treated group received 200 mg./day/calf (about 3-5 mg./kg./day) of 1-(2-hydroxyethyl)-3-nitro-4-pyrazolecarboxamide, which was administered in the calves' milk replacer diet.
The table below reports the average weight gain of the surviving animals and the mortality of the calves in each group.

[2] = system: E. amylovora; test: Fire blight of field-grown pear trees, natural and induced infections; format: in vivo; conditions: 100 to 800 ppm. aqueous dispersions
Experimental: Our compound, 1-(2-hydroxyethyl)-3-nitro-4-pyrazolecarboxamide, was also tested against natural and induced infections of E. amylovora on field-grown pear trees.

[3] = system: Salmonella typhimurium 1503; test: in vitro tube dilution test (MIC); format: cell-based; conditions: Salmonella enterica, Salmonella typhimurium 1503 (poult intestine)
[4] = system: S. typhimurium; test: Salmonella typhimurium in chickens, medicated feed; format: in vivo, chicks; conditions: for Avg. Wt.: surviving chicks
[5] = system: Proteus sp.; test: agar dilution technique (MIC); format: cell-based
[6] = system: Salmonella pullorum 9-25; test: in vitro tube dilution test (MIC); format: cell-based; conditions: Salmonella enterica; Salmonella pullorum 9-25, tube dilution
[7] = system: Staphylococcus aureus; test: agar dilution technique (MIC); format: cell-based
[8] = system: Erysipelas insidiosa; test: in vitro tube dilution test (MIC); format: cell-based
[9] = system: M. gallisepticum; test: Mycoplasma gallisepticum in chickens; format: in vivo
Experimental: A group of broiler type chickens, weighing about 1265 gm., were obtained from a homogeneous source flock. The birds were allocated into 12-bird treatment groups of equal weight. Four treatment groups were used in each of the treatments, including the untreated infected controls; two groups were held as normal controls.
The birds, other than the normal controls, were challenged by administering two 0.2 ml. injections of a freshly thawed M. gallisepticum culture to each bird, one injection in the wing vein and one in the air sac. Immediately after the challenge, four of the treatment groups were treated by injecting 25 mg./kg., intramuscularly, of 1-(2-hydroxyethyl)-3-nitro-4-pyrazolecarboxamide to each chicken. The other four treated groups received the same compound at 2 gm./gal. (about 50 mg./kg./day) in their drinking water for a period of 41/2 days after the challenge was administered.
The birds were held and observed for about 3 weeks. Mortality in the experiment was negligible. At the end of the observation period, the birds were sacrificed and examined for M. gallisepticum lesions of the air sac. A sample of blood from each bird was tested to determine the presence of M. gallisepticum antibodies. […] The final average weights and the air sac lesion counts are shown below.

[10] = system: Streptococcus sp. (group E); test: in vitro tube dilution test (MIC); format: cell-based
[11] = secretion in sow's milk; set-up: species or system swine; conditions: in vivo
[12] = system: Leptospira (5 serotypes); test: in vitro tube dilution test (MIC); format: cell-based
[13] = system: Enterobacter cloacae and aerogenes; test: agar dilution technique (MIC); format: cell-based
[14] = system: P. multocida; test: Mice infected with P. multocida, compound in drinking water; format: in vivo; conditions: 7 days
Experimental: Some of the 3-nitropyrazoles were also administered to mice infected with P. multocida. Tests were conducted in which the pyrazoles were administered both by injection and in the drinking water.
The table below reports results of tests in which the compound was administered in the water. Groups of 10 standardized white mice were segregated, and each mouse was infected by injecting a broth culture of P. multocida subcutaneously. The administration of the test compounds was begun at the same time the mice were infected by adding a known amount of the test compound to the drinking water of the mice. One group of infected control mice received no treatment. The mice were observed, and the test was concluded at the end of 7 days. The number of mice in each group which survived the P. multocida infection was recorded.

[15] = system: Vibrio coli; test: in vitro tube dilution test (MIC); format: cell-based; conditions: Campylobacter coli
[16] = system: Diplococcus pneumoniae; test: agar dilution technique (MIC); format: cell-based; conditions: Streptococcus pneumoniae
[17] = system: Arizona hinshaw (paracolon); test: in vitro tube dilution test (MIC); format: cell-based
[18] = system: group E streptococci; test: Lymphadenitis in swine; format: in vivo; conditions: 200 gm. per ton of feed; 7 weeks; 12 treated swine
Experimental: The same 3-nitropyrazole tested in the example immediately above was also tested to determine its ability to prevent lymphadenitis, or jowl abscess, infections in swine. One group of 12 young swine was treated with the 3-nitropyrazole compound as a feed additive at the rate of 200 gm. per ton of feed, and another group of 12 swine was held as infected controls. Administration of the 3-nitropyrazole began shortly before the administration of the challenge, and continued throughout the 7-week test. All of the swine were challenged with a culture of group E streptococci isolated from jowl abscesses of an infected pig. The challenge organisms were administered as a dispersion in the swine's drinking water. After 7 weeks, all of the swine were slaughtered, and their cervical areas were examined for the presence of the abscesses caused by lymphadenitis infections. […] Abscesses were found in 9 of the 12 infected control animals.

NC(=O)c1cn(CCO)nc1[N+](=O)[O-] [Compound 32, 1-(2-hydroxyethyl)-3-nitro-4-pyrazolecarboxamide]
Mortality ([1]; 200 mg./day/calf): about 12%
surviving treated calves with E. coli in rectal swabs ([1]; 200 mg./day/calf): all of the surviving treated calves
survivors with P. multocida organisms in nasal secretions ([1]; 200 mg./day/calf): 6 of the survivors
Mortality ([1]; 200 mg./day/calf (about 3-5 mg./kg./day), 56 days): 1/8
Avg. Wt. Gain ([1]; 200 mg./day/calf (about 3-5 mg./kg./day), 56 days, survivors): 52.1 lbs.
control of fire blight on field-grown pear trees [2]: controlled fire blight on the pear trees
MIC [3]: < 1.56 µg/mL
Survival ([4]; Test A, 100 gm./ton feed): 20/36
Avg. Wt. ([4]; Test A, 100 gm./ton feed): 94 gm.
Survival ([4]; Test B, 200 gm./ton feed): 35/36
Avg. Wt. ([4]; Test B, 200 gm./ton feed): 107 gm.
Survival ([4]; Test C, 200 gm./ton feed): 34/48
Avg. Wt. ([4]; Test C, 200 gm./ton feed): 71 gm.
MIC [5]: > 128 µg/mL
MIC [6]: < 1.56 µg/mL
MIC [7]: 8 to 16 µg/mL (≈ 40 to 79.9 µM)
MIC [8]: > 50 µg/mL
Air Sac Lesions ([9]; 25 mg./kg. (injected)): 41/48
Avg. Wt. ([9]; 25 mg./kg. (injected)): 2093 gm.
Air Sac Lesions ([9]; 2.0 gm./gal. drinking water): 24/47
Avg. Wt. ([9]; 2.0 gm./gal. drinking water): 2188 gm.
increase of birds' weight ([9]; in one case (average, each)): more than 160 gm.
increase of birds' weight ([9]; in the other treatment (average, each)): ~260 gm.
MIC [10]: 1.56 µg/mL (≈ 7.79 µM)
secretion in sow's milk [11]: secreted in sow's milk
MIC [12]: > 100 µg/mL
MIC [13]: 32 µg/mL (≈ 160 µM)
Survival ([14]; 0.1 gm./gal. in drinking water): 8/10
Survival ([14]; 0.2 gm./gal. in drinking water): 10/10
MIC [15]: 6.25 µg/mL (≈ 31.2 µM)
MIC [16]: 2 µg/mL (≈ 9.99 µM)
MIC [17]: 6.25 µg/mL (≈ 31.2 µM)
abscesses in cervical areas [18]: No abscesses were found in any of the treated swine
